The values below come from patent US10420840B2, “Anticancer therapeutic agents” (RLL, LLC, priority 2015, dated 2019).

A word on the IC50: it is the concentration that gives 50% inhibition.

The test system of one test is LAN5. The experiment in a line: Cell viability, CellTiter Glo Assay, LAN5. Particulars: LA-N-5; LAN5, neuroblastoma bone metastasis cell line; read-out: Effect of AOH39 on Cell Viability IC50. Format: cell-based. The method, then:
(§1) The IC50's listed in Table 1 and in FIGS. 8 and 9 were determined by monitoring cell proliferation in the absence or presence of increasing concentrations of AOH39 using the Cell-Titer Glo Assay, (Promega Inc., Madison, Wis.) which monitors the energy status of the entire culture and the viability of the cell population. (https://www.promega.com/products/cell-health-and-metabolismicell-viability-assaysicelltiter_glo-luminescent-cell-viability-assay/). As the population doubles so does the quantum yield from the assay. HCC1937 is a BRCA1 defective Breast Cancer cell line; MCF7 is an ER+ breast cancer cell line; MDA-MB231 and MDA-MB468 are ER-aggressive breast cancer cell lines. SK-N-AS, SK-N-BE2c, SK-N-DZ lines are neuroblastoma cell lines and LAN5 cells are a cell line derived from a neuroblastoma bone metastasis; MCF10A is a non-malignant but immortalized breast cell line. PBMC—peripheral blood monocytes (proliferating normal cells), and MCF10A is an immortalized but non-malignant breast epithelial cell line. Referring to FIGS. 8 and 9, the X-axis is the Log of AOH39 concentration in uM, where 0 corresponds to 1 uM and 1 corresponds to 10 uM. The Y-Axis indicates cell proliferation as a percentage of identical cell cultures grown in PBS/DMSO without added AOH39.

The next test has as its system MCF7. Description: Cell viability, CellTiter Glo Assay, MCF7. Format: cell-based. Particulars: Homo sapiens; MCF7, ER+ breast cancer cell line; read-out: Effect of AOH39 on Cell Viability IC50. The method, then: as §1
(ATP-based viability assays read luminescence as a measure of living cells.)

Test [1] concerns MCF7 Cell SV40 origin-dependent In Vitro DNA replication. Description: T-antigen and SV40 origin dependent in vitro DNA replication reaction. Format: biochemical. Particulars: for Inhibition of in vitro DNA replication: relative to reaction containing Tris-HCl/DMSO. The method, then: In vitro DNA replication activity was determined using the standard T-antigen and SV40 origin dependent in vitro DNA replication reaction (L. Malkas et al., Biochemistry 29: 6362-6374 (1990) and percent inhibition was determined relative to a reaction containing Tris-HCl/DMSO in place of AOH39.) The reaction was started with the addition of T-antigen to the reaction mixture. Results are shown in FIG. 3, with AOH39 inhibiting replication by roughly 50% at concentrations of 5 μM and by more than 75% at 10 μM.
(§2) There is a precise correlation between the ability of AOH39 to inhibit the SV40 origin dependent in vitro DNA replication process and MCF7 cell viability, FIG. 4. Cell viability was determined colorimetrically using the MTT assay following a 72 hour incubation with 10 μM of AOH39. In vitro DNA replication activity was determined using the standard T-antigen and SV40 origin dependent in vitro DNA replication reaction (L. Malkas et al., Biochemistry, 29, 6362-6374 (1990)), and percent inhibition was determined relative to a reaction containing Tris-HCl/DMSO in place of AOH39 for the activity assay, and PBS/DMSO for the viability assay.

The next test relates to SK-N-DZ. Description: Cell viability, CellTiter Glo Assay, SK-N-DZ. Format: cell-based. Particulars: Homo sapiens, neuroblastoma cell line, read-out: Effect of AOH39 on Cell Viability IC50. The method, then: as §1
The test system of another test is SK-N-AS. The experiment in a line: Cell viability, CellTiter Glo Assay, SK-N-AS. Format: cell-based. Particulars: Homo sapiens, neuroblastoma cell line, read-out: Effect of AOH39 on Cell Viability IC50. The method, then: as §1
In the next test the test system is MCF10A. Description: Cell viability, CellTiter Glo Assay, MCF10A. Format: cell-based. Particulars: Homo sapiens, MCF-10A, non-malignant but immortalized breast cell line, read-out: Effect of AOH39 on Cell Viability IC50. The method, then:
as §1

The subject of the next test is MDA-MB468. Description: Cell viability, CellTiter Glo Assay, MDA-MB468. Particulars: Homo sapiens, MDA-MB-468; MDA-MB468, ER- breast cancer cell line; read-out: Effect of AOH39 on Cell Viability IC50. Format: cell-based. The method, then:
as §1

The next test relates to HCC1937. Description: Cell viability, CellTiter Glo Assay, HCC1937. Format: cell-based. Particulars: Homo sapiens; HCC1937, BRCA1 defective breast cancer cell line; read-out: Effect of AOH39 on Cell Viability IC50. The method, then: as §1
A further test concerns MCF7 cells. The experiment in a line: MCF7 cell viability, MTT assay. Particulars: 72 hour incubation with 10 μM. Format: cell-based. The method, then: as §2
On the technique in general: Tetrazolium assays rely on reduction of a dye to a coloured formazan, in cell work by metabolically active cells.

For the next test, the system named is SK-N-BE2c. Description: Cell viability, CellTiter Glo Assay, SK-N-BE2c. Format: cell-based. Particulars: SK-N-BE(2)-C, neuroblastoma cell line, read-out: Effect of AOH39 on Cell Viability IC50. The method, then: as §1
Another test concerns PBMC. The experiment in a line: Cell viability, CellTiter Glo Assay, PBMC. Particulars: peripheral blood monocytes (proliferating normal cells), read-out: Effect of AOH39 on Cell Viability IC50. Format: cell-based. The method, then: as §1
Another test has as its system MDA-MB231. The experiment in a line: Cell viability, CellTiter Glo Assay, MDA-MB231. Format: cell-based. Particulars: Homo sapiens, MDA-MB-231; MDA-MB231, ER- breast cancer cell line; read-out: Effect of AOH39 on Cell Viability IC50. On the procedure: as §1

Turning to `O=C(CNC(=O)c1cccc2ccccc12)Nc1ccccc1Cc1ccccc1` [AOH39], the IC50 in the test with LAN5 stood at 1200 nM; with MCF7, 3100 nM; in the test with SK-N-DZ, 1700 nM; in the test with SK-N-AS, 2200 nM; in the test on MCF10A, 6200 nM; with MDA-MB468 it was 3300 nM. For the same molecule, the IC50 turned out to be 2200 nM in the test on HCC1937, 2900 nM in the test with SK-N-BE2c, 13200 nM with PBMC and 1000 nM with MDA-MB231. Also, the entries for the “Inhibition of in vitro DNA replication” value in [1] (5 μM) and in [1] (10 μM) were “roughly 50%” and “more than 75%”, respectively. In test [1] (relative to control replication reaction containing PBS/DMSO in place of compound), the “Inhibition of DNA replication (in words)” value is listed as “inhibited DNA replication significantly”. The “MCF7 cell viability (in words)” value in the test with MCF7 cells is given as “significant decrease in MCF7 cell viability”.
